Experiments:
[1] = Plasma stability; type: in vitro ADME; settings: In vitro (human)
[2] = Tolerability in mouse PDAC models; type: in vivo; settings: >6 months
From the text: In our KPC mouse and human PDX in vivo models of PDAC, PXS-5505 reduces collagen deposition and tumor stiffness and improves perfusion of agents into the primary tumor site. […] These in vivo findings match the in vitro organotypic data showing reductions in local invasion. Furthermore, addition of PXS-5505 to gemcitabine treatment extends median survival in the KPC model by approximately 45% and decreases metastatic deposits within the liver compared to gemcitabine alone.

[3] = test system: standard panel of macromolecular targets; experiment: Eurofins SafetyScreen44 off-target panel (enzyme and radioligand-binding assays); settings: 30 µM
From the text: To increase specificity for the lysyl oxidase family, the design of PXS-5505 (Supplementary Data 1–3) was based upon substrate analog fluoroallylamines. Variants of fluoroallylamines have previously been used in amine oxidase inhibitors, including those targeting LOXL2 and LOXL3 (ref. [31]). […] Importantly, PXS-5505 not only maintains the potent functional inhibition of LOXL2 but linkage to a quinoline moiety improves potency for all other lysyl oxidase family members and is key to the superiority of PXS-5505 (Fig. 2a). PXS-5505 is the free base of the active principle, which is suitably isolated as a dihydrochloride salt.

[4] = test system: LOX; experiment: Time-dependent inhibition with pre-incubation 0-240 min (Fig. 2d); type: biochemical
From the text: Data are presented as mean ± s.d. […] Data presented as mean ± s.d. […] Source data TEXT PRINTED IN THE PICTURE: (b) PXS-5505: Recombinant DAO IC50 (nM): >30,000; Recombinant SSAO/VAP1 IC50 (nM): >30,000; Recombinant MAO-A IC50 (nM): >30,000; Recombinant MAO-B IC50 (nM): >30,000 | (f) PXS-5505: Fibroblast LOX IC50 (nM): 4,930; Recombinant LOXL-1 IC50 (nM): 1,590; Recombinant LOXL-2 IC50 (nM): 570; Recombinant LOXL-3 IC50 (nM): 1,800; Recombinant LOXL-4 IC50 (nM): 190
Similar to other fluoroallylamine-based amine oxidase inhibitors, the mode of inhibition is assumed to be a two-step mechanism (Fig. 2c), with PXS-5505 reacting with the unique LTQ cofactor found within the active site. The fluoroallylamine facilitates the formation of a covalent, irreversible bond. […] Furthermore, in jump dilution experiments, there is no significant recovery of activity following rapid dilution (LOXL1 (5 ± 5% recovery, n = 4), LOXL2 (7 ± 1.2% recovery, n = 3) and LOXL3 (11 ± 2% recovery, n = 3)).

For `Cl.Cl.NC/C=C(\F)CS(=O)(=O)c1cccc2cccnc12.O` [PXS-5505, (Z)-3-fluoro-4-(quinolin-8-ylsulfonyl)but-2-en-1-amine dihydrochloride monohydrate], the remaining at 1 h [1] was 97%, the “adverse side effects in mouse PDAC models” value [2] was “no adverse side effects” and the “off-target activity against a standard panel of macromolecular targets” value [3] was “does not show any significant off-target activity”. The LOX specific activity ([4]; pre-incubation 0 min, log conc -4.52288) was 32.1036, the LOX specific activity ([4]; pre-incubation 0 min, log conc -5) was 64.3382 and the LOX specific activity ([4]; pre-incubation 0 min, log conc -5.47756) was 84.6897. For the same compound, the LOX specific activity ([4]; pre-incubation 0 min, log conc -5.95468) was 91.8109, the LOX specific activity ([4]; pre-incubation 0 min, log conc -6.4318) was 92.4662 and the LOX specific activity ([4]; pre-incubation 0 min, log conc -6.91009) was 98.7719. The LOX specific activity ([4]; pre-incubation 0 min, log conc -7.3851) was 96.7913, the LOX specific activity ([4]; pre-incubation 0 min, log conc -7.86328) was 102.005 and the LOX specific activity ([4]; pre-incubation 0 min, log conc -8.34008) was 102.107. The LOX specific activity ([4]; pre-incubation 0 min, log conc -8.81816) was 98.6554, the LOX specific activity ([4]; pre-incubation 0 min, log conc -9.29414) was 106.228 and the LOX specific activity ([4]; pre-incubation 0 min, log conc -9.77126) was 108.063. The LOX specific activity ([4]; pre-incubation 15 min, log conc -4.52288) was 9.177, the LOX specific activity ([4]; pre-incubation 15 min, log conc -5) was 32.3488 and the LOX specific activity ([4]; pre-incubation 15 min, log conc -5.47756) was 65.4986. It also gave an LOX specific activity ([4]; pre-incubation 15 min, log conc -5.95468) of 81.8309, an LOX specific activity ([4]; pre-incubation 15 min, log conc -6.4318) of 89.7677 and an LOX specific activity ([4]; pre-incubation 15 min, log conc -6.91009) of 93.4569. It also gave an LOX specific activity ([4]; pre-incubation 15 min, log conc -7.3851) of 96.3684, an LOX specific activity ([4]; pre-incubation 15 min, log conc -7.86328) of 90.7581 and an LOX specific activity ([4]; pre-incubation 15 min, log conc -8.34008) of 96.0493. For the same compound, the LOX specific activity ([4]; pre-incubation 15 min, log conc -8.81816) was 95.7037, the LOX specific activity ([4]; pre-incubation 15 min, log conc -9.29414) was 99.1403 and the LOX specific activity ([4]; pre-incubation 15 min, log conc -9.77126) was 98.9675. It also gave an LOX specific activity ([4]; pre-incubation 30 min, log conc -4.52288) of 2.6085, an LOX specific activity ([4]; pre-incubation 30 min, log conc -5) of 10.9871 and an LOX specific activity ([4]; pre-incubation 30 min, log conc -5.47756) of 44.0429. The LOX specific activity ([4]; pre-incubation 30 min, log conc -5.95468) was 69.7571, the LOX specific activity ([4]; pre-incubation 30 min, log conc -6.4318) was 82.4602 and the LOX specific activity ([4]; pre-incubation 30 min, log conc -6.91009) was 92.2531. The LOX specific activity ([4]; pre-incubation 30 min, log conc -7.3851) was 91.8445, the LOX specific activity ([4]; pre-incubation 30 min, log conc -7.86328) was 100.827 and the LOX specific activity ([4]; pre-incubation 30 min, log conc -8.34008) was 94.7736. The LOX specific activity ([4]; pre-incubation 30 min, log conc -8.81816) was 95.6095, the LOX specific activity ([4]; pre-incubation 30 min, log conc -9.29414) was 101.078 and the LOX specific activity ([4]; pre-incubation 30 min, log conc -9.77126) was 104.925. It also gave an LOX specific activity ([4]; pre-incubation 60 min, log conc -4.52288) of -1.9, an LOX specific activity ([4]; pre-incubation 60 min, log conc -5) of 1.453 and an LOX specific activity ([4]; pre-incubation 60 min, log conc -5.47756) of 20.7125. The LOX specific activity ([4]; pre-incubation 60 min, log conc -5.95468) was 53.0465, the LOX specific activity ([4]; pre-incubation 60 min, log conc -6.4318) was 78.5482 and the LOX specific activity ([4]; pre-incubation 60 min, log conc -6.91009) was 90.7227. For the same compound, the LOX specific activity ([4]; pre-incubation 60 min, log conc -7.3851) was 95.8188, the LOX specific activity ([4]; pre-incubation 60 min, log conc -7.86328) was 101.294 and the LOX specific activity ([4]; pre-incubation 60 min, log conc -8.34008) was 102.525. The LOX specific activity ([4]; pre-incubation 60 min, log conc -8.81816) was 100.564, the LOX specific activity ([4]; pre-incubation 60 min, log conc -9.29414) was 101.737 and the LOX specific activity ([4]; pre-incubation 60 min, log conc -9.77126) was 102.743. For the same compound, the LOX specific activity ([4]; pre-incubation 120 min, log conc -4.52288) was 2.378, the LOX specific activity ([4]; pre-incubation 120 min, log conc -5) was 0.7896 and the LOX specific activity ([4]; pre-incubation 120 min, log conc -5.47756) was 6.366. It also gave an LOX specific activity ([4]; pre-incubation 120 min, log conc -5.95468) of 21.6941, an LOX specific activity ([4]; pre-incubation 120 min, log conc -6.4318) of 62.059 and an LOX specific activity ([4]; pre-incubation 120 min, log conc -6.91009) of 92.1986. It also gave an LOX specific activity ([4]; pre-incubation 120 min, log conc -7.3851) of 91.1259, an LOX specific activity ([4]; pre-incubation 120 min, log conc -7.86328) of 98.8619 and an LOX specific activity ([4]; pre-incubation 120 min, log conc -8.34008) of 100.244. The LOX specific activity ([4]; pre-incubation 120 min, log conc -8.81816) was 100.045, the LOX specific activity ([4]; pre-incubation 120 min, log conc -9.29414) was 96.9572 and the LOX specific activity ([4]; pre-incubation 120 min, log conc -9.77126) was 100.753. The LOX specific activity ([4]; pre-incubation 240 min, log conc -4.52288) was -3.18, the LOX specific activity ([4]; pre-incubation 240 min, log conc -5) was 0.3645 and the LOX specific activity ([4]; pre-incubation 240 min, log conc -5.47756) was 8.283. It also gave an LOX specific activity ([4]; pre-incubation 240 min, log conc -5.95468) of 6.894, an LOX specific activity ([4]; pre-incubation 240 min, log conc -6.4318) of 35.306 and an LOX specific activity ([4]; pre-incubation 240 min, log conc -6.91009) of 69.9646. The LOX specific activity ([4]; pre-incubation 240 min, log conc -7.3851) was 87.2279, the LOX specific activity ([4]; pre-incubation 240 min, log conc -7.86328) was 94.5493 and the LOX specific activity ([4]; pre-incubation 240 min, log conc -8.34008) was 99.3255. It also gave an LOX specific activity ([4]; pre-incubation 240 min, log conc -8.81816) of 102.317, an LOX specific activity ([4]; pre-incubation 240 min, log conc -9.29414) of 102.769 and an LOX specific activity ([4]; pre-incubation 240 min, log conc -9.77126) of 103.159. The “time-dependent inhibition of LOX specific activity” value ([4]; pre-incubation time 0–240 min) was “increased potency with increased pre-incubation time”.

Reference: PMC10518255, “A first-in-class pan-lysyl oxidase inhibitor impairs stromal remodeling and enhances gemcitabine response and survival in pancreatic cancer” (Nature Cancer, 2023)
